From patent US20210380556A1, “HETEROARYLAZOLE COMPOUND AND PEST CONTROL AGENT” (Nippon Soda Co., Ltd., priority 2018, published 2021)

What follows are molecules tested on Mythimna separata (assay: Test Example 1: efficacy on Mythimna separata (treated artificial feed)). Conditions: 1 μl of emulsion (I) (5% active ingredient) in 0.8 g artificial feed; second instar larvae; 25° C.; fifth day.
Type: in vivo
Excerpt: 5 parts of the heteroaryl azole compound of the present invention, 93.6 parts of dimethylformamide, and 1.4 parts of polyoxyethylene alkyl aryl ether were mixed and dissolved to prepare emulsion (I) containing 5% of the active ingredient.
For a control, 98.5 parts of dimethylformamide and 1.5 parts of polyoxyethylene alkyl aryl ether were mixed and dissolved to prepare emulsion (II).
Insecticidal rate (%)=(The number of dead insects/The number of tested insects)×100
0.8 g of commercially available artificial feed (Insecta LFS, manufactured by Nosan Corp.) and 1 μl of the emulsion (I) were well mixed to obtain test feed.
A plastic test container (capacity: 1.4 ml) was packed with 0.2 g of the test feed per treatment plot. Then, two second instar larvae of Mythimna separata were inoculated to each treatment plot. A plastic lid was put on the test container so as to prevent escape of the second instar larvae of Mythimna separata. The container was placed in a thermostat chamber of 25° C. On the fifth day, the insecticidal rate and the food intake were examined. The test was conducted in duplicate.
The insecticidal rate and the food intake of a control plot were examined in the same way as in Test Example 1 except that the emulsion (I) was changed to the emulsion (II).

SMILES | insecticidal rate or food intake as compared with the control plot
CCS(=O)(=O)c1cnc(N)nc1-c1ncc(C(F)(F)C(F)(F)C(F)(F)C(F)(F)F)n1C [a-8] | insecticidal rate of 100% for Mythimna separata or a food intake of 10% or less
CCS(=O)(=O)c1cnc(OC)nc1-c1ncc(C(F)(F)C(F)(F)C(F)(F)C(F)(F)F)n1C [a-9] | insecticidal rate of 100% for Mythimna separata or a food intake of 10% or less
CCS(=O)(=O)c1cc(C2CC2)cnc1-c1ncc(C(F)(F)C(F)(F)C(F)(F)C(F)(F)F)n1C [b-1] | insecticidal rate of 100% for Mythimna separata or a food intake of 10% or less
CCSc1cccnc1-c1ncc(C(F)(F)C(F)(F)C(F)(F)C(F)(F)F)n1C [b-2] | insecticidal rate of 100% for Mythimna separata or a food intake of 10% or less
CCS(=O)(=O)c1cccnc1-c1ncc(C(F)(F)C(F)(F)C(F)(F)C(F)(F)F)n1C [b-3] | insecticidal rate of 100% for Mythimna separata or a food intake of 10% or less
CCS(=O)(=O)c1cc(C(F)(F)F)cnc1-c1ncc(C(F)(F)C(F)(F)C(F)(F)C(F)(F)F)n1C [b-7] | insecticidal rate of 100% for Mythimna separata or a food intake of 10% or less
CCS(=O)(=O)c1ccc(-n2cncn2)nc1-c1ncc(C(F)(F)C(F)(F)C(F)(F)C(F)(F)F)n1C [b-8] | insecticidal rate of 100% for Mythimna separata or a food intake of 10% or less
CCS(=O)(=O)c1ccc(-c2ncccn2)nc1-c1ncc(C(F)(F)C(F)(F)C(F)(F)C(F)(F)F)n1C [b-9] | insecticidal rate of 100% for Mythimna separata or a food intake of 10% or less
CCS(=O)(=O)c1ccc(-n2cncn2)nc1-c1ncc(C(F)C(F)(F)C(F)(F)C(F)(F)C(F)(F)F)n1C (stereo not drawn) [b-10] | insecticidal rate of 100% for Mythimna separata or a food intake of 10% or less
CCS(=O)(=O)c1cccnc1-c1ncc(C(F)C(F)(F)C(F)(F)C(F)(F)C(F)(F)F)n1C (stereo not drawn) [b-11] | insecticidal rate of 100% for Mythimna separata or a food intake of 10% or less
CCS(=O)(=O)c1ccc(N)nc1-c1ncc(C(F)(F)C(F)(F)C(F)(F)C(F)(F)F)n1C [b-12] | insecticidal rate of 100% for Mythimna separata or a food intake of 10% or less
CCS(=O)(=O)c1ccc(-n2cncn2)nc1-c1ncc(C(Cl)C(F)(F)C(F)(F)C(F)(F)C(F)(F)F)n1C (stereo not drawn) [b-13] | insecticidal rate of 100% for Mythimna separata or a food intake of 10% or less
CCS(=O)(=O)c1cc(C(F)(F)F)cnc1-c1ncc(C(F)(F)C(F)(F)C(F)(F)F)n1C [b-15] | insecticidal rate of 100% for Mythimna separata or a food intake of 10% or less
CCS(=O)(=O)c1ccc(-n2cncn2)nc1-c1ncc(C(F)(F)C(F)(F)C(F)(F)F)n1C [b-16] | insecticidal rate of 100% for Mythimna separata or a food intake of 10% or less
CCS(=O)(=O)c1ccc(-n2cncn2)nc1-c1ncc(C(F)(F)C(F)(F)F)n1C [b-17] | insecticidal rate of 100% for Mythimna separata or a food intake of 10% or less
CCS(=O)(=O)c1cc(C2CC2)cnc1-c1ncc(C(F)C(F)(F)C(F)(F)C(F)(F)F)n1C (stereo not drawn) [b-18] | insecticidal rate of 100% for Mythimna separata or a food intake of 10% or less
CCS(=O)(=O)c1cc(C2CC2)cnc1-c1ncc(C(F)(F)C(F)(F)C(F)(F)F)n1C [b-20] | insecticidal rate of 100% for Mythimna separata or a food intake of 10% or less
CCS(=O)(=O)c1cc(-c2ncccn2)cnc1-c1ncc(C(F)(F)C(F)(F)F)n1C [b-22] | insecticidal rate of 100% for Mythimna separata or a food intake of 10% or less
CCS(=O)(=O)c1cc(Br)cnc1-c1ncc(C(F)C(F)(F)C(F)(F)F)n1C (stereo not drawn) [b-23] | insecticidal rate of 100% for Mythimna separata or a food intake of 10% or less
CCS(=O)(=O)c1cc(-c2ncccn2)cnc1-c1ncc(C(F)C(F)(F)C(F)(F)F)n1C (stereo not drawn) [b-24] | insecticidal rate of 100% for Mythimna separata or a food intake of 10% or less
CCS(=O)(=O)c1cc(C2CC2)cnc1-c1ncc(C(F)C(F)(F)C(F)(F)F)n1C (stereo not drawn) [b-25] | insecticidal rate of 100% for Mythimna separata or a food intake of 10% or less

SMILES | insecticidal rate or food intake as compared with the control plot
CCS(=O)(=O)c1cc(C2CC2)cnc1-c1ncc(C(F)(F)C(F)(F)F)n1C [b-26] | insecticidal rate of 100% for Mythimna separata or a food intake of 10% or less
CCS(=O)(=O)c1cc(-c2ccccn2)cnc1-c1ncc(C(F)C(F)(F)C(F)(F)F)n1C (stereo not drawn) [b-27] | insecticidal rate of 100% for Mythimna separata or a food intake of 10% or less
CCS(=O)(=O)c1cc(-c2ccccn2)cnc1-c1ncc(C(F)(F)C(F)(F)C(F)(F)F)n1C [b-29] | insecticidal rate of 100% for Mythimna separata or a food intake of 10% or less
CCS(=O)(=O)c1cc(-c2ncccn2)cnc1-c1ncc(C(Cl)C(F)(F)C(F)(F)F)n1C (stereo not drawn) [b-32] | insecticidal rate of 100% for Mythimna separata or a food intake of 10% or less
CCS(=O)(=O)c1cc(-c2cc(F)cc(F)c2)cnc1-c1ncc(C(F)C(F)(F)C(F)(F)F)n1C (stereo not drawn) [b-34] | insecticidal rate of 100% for Mythimna separata or a food intake of 10% or less
CCS(=O)(=O)c1cc(-c2cncnc2)cnc1-c1ncc(C(F)C(F)(F)C(F)(F)F)n1C (stereo not drawn) [b-35] | insecticidal rate of 100% for Mythimna separata or a food intake of 10% or less
CCS(=O)(=O)c1cc(-n2ccc(C(F)(F)F)n2)cnc1-c1ncc(C(F)(F)C(F)(F)C(F)(F)F)n1C [b-36] | insecticidal rate of 100% for Mythimna separata or a food intake of 10% or less
C=Cc1cnc(-c2ncc(C(F)C(F)(F)C(F)(F)F)n2C)c(S(=O)(=O)CC)c1 (stereo not drawn) [b-39] | insecticidal rate of 100% for Mythimna separata or a food intake of 10% or less
CCS(=O)(=O)c1cc(NC(=O)C2CC2)cnc1-c1ncc(C(F)(F)C(F)(F)C(F)(F)F)n1C [b-41] | insecticidal rate of 100% for Mythimna separata or a food intake of 10% or less
CCS(=O)(=O)c1cc(C(C)(C)C#N)cnc1-c1ncc(C(F)(F)C(F)(F)C(F)(F)F)n1C [b-42] | insecticidal rate of 100% for Mythimna separata or a food intake of 10% or less
CCS(=O)(=O)c1cc(-c2ccccn2)cnc1-c1ncc(C(F)C(F)(C(F)(F)F)C(F)(F)F)n1C (stereo not drawn) [b-43] | insecticidal rate of 100% for Mythimna separata or a food intake of 10% or less
CCS(=O)(=O)c1cc(-c2ccccn2)cnc1-c1ncc(C(Cl)C(F)(C(F)(F)F)C(F)(F)F)n1C (stereo not drawn) [b-44] | insecticidal rate of 100% for Mythimna separata or a food intake of 10% or less
CCS(=O)(=O)c1cc(-n2cncn2)cnc1-c1ncc(C(F)(F)C(F)(F)C(F)(F)F)n1C [b-45] | insecticidal rate of 100% for Mythimna separata or a food intake of 10% or less
CCS(=O)(=O)c1cc(C2CC2)cnc1-c1ncc(C(F)C(F)(C(F)(F)F)C(F)(F)F)n1C (stereo not drawn) [b-52] | insecticidal rate of 100% for Mythimna separata or a food intake of 10% or less
CCS(=O)(=O)c1cc(C2CC2)cnc1-c1ncc(C(Cl)C(F)(C(F)(F)F)C(F)(F)F)n1C (stereo not drawn) [b-53] | insecticidal rate of 100% for Mythimna separata or a food intake of 10% or less
CCS(=O)(=O)c1cc(-c2ncccc2C#N)cnc1-c1ncc(C(F)(F)C(F)(F)C(F)(F)F)n1C [b-54] | insecticidal rate of 100% for Mythimna separata or a food intake of 10% or less
CCS(=O)(=O)c1cc(-c2ncccc2F)cnc1-c1ncc(C(F)(F)C(F)(F)C(F)(F)F)n1C [b-55] | insecticidal rate of 100% for Mythimna separata or a food intake of 10% or less
CCS(=O)(=O)c1cc(C2(c3ccccn3)CC2)cnc1-c1ncc(C(F)C(F)(C(F)(F)F)C(F)(F)F)n1C (stereo not drawn) [b-57] | insecticidal rate of 100% for Mythimna separata or a food intake of 10% or less
CCS(=O)(=O)c1cc(-c2ccccc2F)cnc1-c1ncc(C(F)(F)C(F)(F)C(F)(F)F)n1C [b-58] | insecticidal rate of 100% for Mythimna separata or a food intake of 10% or less
CCS(=O)(=O)c1cc(-c2ccccn2)cnc1-c1ncc(C(F)(F)C(F)(F)C(F)(F)C(F)(F)F)n1C [b-59] | insecticidal rate of 100% for Mythimna separata or a food intake of 10% or less
CCS(=O)(=O)c1cc(-c2cc(F)cc(F)c2)cnc1-c1ncc(C(F)(F)C(F)(F)C(F)(F)F)n1C [b-60] | insecticidal rate of 100% for Mythimna separata or a food intake of 10% or less
